In patent EP0457910A1, “NOVEL GLUCOSAMINE DERIVATIVE AND LIPOSOME CONTAINING THE SAME AS MEMBRANE COMPONENT” (Japan Tobacco Inc., priority 1989, dated 1991):

Tested on: 5-week-old ICR male mouse
Experiment: Acute toxicity No. 1: lethal toxicity test of the compounds, intraperitoneal
Assay type: in vivo
Settings: for dead individuals during the observation period / general condition after the administration / weight: i.p., mice
Text: Novel glucosamine derivative [I] according to the present invention was used to perform a lethal toxicity test with respect to mice. The following compounds were used as to-be-tested substances. • ① 6-O-palmitoyl-D-glucosamine methylglycoside • ② 6,6'-di-O-palmitoyl-D-glucosamino-(l→4)-β-D-glucosamine methylglycoside • ③ Stearylamine (Comparative Example)
Each of the above compounds was suspended in a 0.5%-CMC·Na solution to prepare a to-be-tested solution. 1.0 mℓ of each to-be-tested solution was administered intraperitoneally to a 5-week-old ICR male mouse, and a mouse mortality state was observed. Note that 1.0 mℓ of a 0.5%-CMC·Na solution was similarly administered to a solvent control group.

CCCCCCCCCCCCCCCC(=O)OC[C@H]1OC(OC)[C@H](N)[C@@H](O)[C@@H]1O (stereo partly drawn) [compound ①, 6-O-palmitoyl-D-glucosamine methylglycoside]
Total Number of dead individuals (450 ng/kg i.p.): 0/2 | Number of dead individuals (450 ng/kg i.p., 1st day): 0/2 | Number of dead individuals (450 ng/kg i.p., 2nd day): 0/2 | Number of dead individuals (450 ng/kg i.p., 3rd day): 0/2 | Number of dead individuals (450 ng/kg i.p., Day of test): 0/2 | Total Number of dead individuals (900 ng/kg i.p.): 0/2 | Number of dead individuals (900 ng/kg i.p., 1st day): 0/2 | Number of dead individuals (900 ng/kg i.p., 2nd day): 0/2 | Number of dead individuals (900 ng/kg i.p., 3rd day): 0/2 | Number of dead individuals (900 ng/kg i.p., Day of test): 0/2 | dead individuals during the observation period: no dead individual was found | general condition after the administration: no significant change was found | weight: an increase in weight was found as in the control

CCCCCCCCCCCCCCCC(=O)OC[C@H]1O[C@@H](O[C@H]2[C@H](O)[C@@H](N)C(OC)O[C@@H]2COC(=O)CCCCCCCCCCCCCCC)[C@H](N)[C@@H](O)[C@@H]1O (stereo partly drawn) [compound ②, 6,6'-di-O-palmitoyl-D-glucosamino-(1→4)-β-D-glucosamine methylglycoside]
Total Number of dead individuals (450 ng/kg i.p.): 0/1 | Number of dead individuals (450 ng/kg i.p., 1st day): 0/1 | Number of dead individuals (450 ng/kg i.p., 2nd day): 0/1 | Number of dead individuals (450 ng/kg i.p., 3rd day): 0/1 | Number of dead individuals (450 ng/kg i.p., Day of test): 0/1 | Total Number of dead individuals (900 ng/kg i.p.): 0/1 | Number of dead individuals (900 ng/kg i.p., 1st day): 0/1 | Number of dead individuals (900 ng/kg i.p., 2nd day): 0/1 | Number of dead individuals (900 ng/kg i.p., 3rd day): 0/1 | Number of dead individuals (900 ng/kg i.p., Day of test): 0/1 | dead individuals during the observation period: no dead individual was found | general condition after the administration: no significant change was found | weight: an increase in weight was found as in the control

CCCCCCCCCCCCCCCCCCN [compound ③, Stearylamine, reference compound]
Total Number of dead individuals (250 ng/kg i.p.): 1/5 | Number of dead individuals (250 ng/kg i.p., 1st day): 0/5 | Number of dead individuals (250 ng/kg i.p., 2nd day): 0/5 | Number of dead individuals (250 ng/kg i.p., 3rd day): 1/5 | Number of dead individuals (250 ng/kg i.p., Day of test): 0/5 | Total Number of dead individuals (500 ng/kg i.p.): 3/5 | Number of dead individuals (500 ng/kg i.p., 1st day): 0/5 | Number of dead individuals (500 ng/kg i.p., 2nd day): 3/5 | Number of dead individuals (500 ng/kg i.p., 3rd day): 0/2 | Number of dead individuals (500 ng/kg i.p., Day of test): 0/5 | Total Number of dead individuals (1,500 ng/kg i.p.): 4/4 | Number of dead individuals (1,500 ng/kg i.p., 1st day): 0/4 | Number of dead individuals (1,500 ng/kg i.p., 2nd day): 1/4 | Number of dead individuals (1,500 ng/kg i.p., 3rd day): 3/3 | Number of dead individuals (1,500 ng/kg i.p., Day of test): 0/4 | general condition after the administration: a decrease in spontaneous motion was found immediately after the administration | weight: the weight was gradually decreased to result in death
